pIC50: −log10 of the molar value. The source made the active and inactive calls. The rule behind the calls is not given here.

One may read the pIC50 as the negative decadic logarithm of the IC50, by convention in mol/L.

For series [1], the system named is Epidermal growth factor receptor (Homo sapiens), P00533 [L858R,T790M]. The note with it: NCI-H1975, 0.01 to 1 uM.
The subject of series [2] is NCI-H1975. In words: Induction of apoptosis in gefitinib-resistant human NCI-H1975 cells harboring EGFR L858R/[…] double mutant after 24 hrs by annexin-V/7-AAD staining-based FACS flow cytometric analysis. The class given is functional, cell-based.
Series [3] relates to Epidermal growth factor receptor (Homo sapiens), P00533 [L858R,T790M]. As to conditions: NCI-H1975, 0.01 to 1 uM. This is another data set of the same source.
For series [4], the system named is HCC827. In words: Induction of apoptosis in gefitinib-sensitive human HCC827 cells harboring EGFR […] deletion mutant after 24 hrs by annexin-V/7-AAD staining-based FACS flow cytometric analysis. The class given is functional, cell-based. Background: A flow cytometer gives signals particle by particle.
Series [5] is described as follows: Induction of apoptosis in EGFR-independent human H460 cells at 1 to 5 uM after 24 hrs by annexin-V/7-AAD staining-based FACS flow cytometric analysis. The class given is cell-based. The note with it: nci-h460, 24 h.
The subject of series [6] is NCI-H1975. In words: Induction of NO production in human NCI-H1975 cells harboring EGFR L858R/[…] double mutant assessed as increase in nitrite level at 100 uM after 150 mins by Griess assay. The class given is functional, cell-based. In general terms: The Griess reaction detects nitrite, a stable product of nitric oxide.
Series [7] concerns A549. In words: cells. The class given is ADME, cell-based. The note with it: Homo sapiens, A549, 72 h.
Description: Cytotoxicity against human A549 cells harboring wild type EGFR and k-RAS mutation assessed as growth inhibition after 72 hrs by MTT assay
Series [8] concerns Epidermal growth factor receptor (Homo sapiens), P00533 [L858R,T790M]. The note with it: NCI-H1975, 0.01 to 1 uM. This is another data set of the same source.
The test system of series [9] is NCI-H1975. In words: Antitumor activity against gefitinib-resistant human NCI-H1975 cells harboring EGFR L858R/[…] double mutant xenografted in athymic BALB/c nude mouse assessed as tumor growth inhibition at 8 mg/kg, ip qd administered for 14 days measured every other day during compound administration relative to vehicle-treated control. The class given is functional. As to conditions: 336 h, route intraperitoneal, read-out: TGI.

Series [10] is described as follows: cells. The class given is functional, cell-based. The note with it: Homo sapiens, HCC827, 72 h.
Series [11] in a line: cells. The class given is ADME, cell-based. The note with it: Homo sapiens, BEAS-2B, 72 h.
Description: Cytotoxicity against human BEAS2B cells harboring wild type EGFR assessed as growth inhibition after 72 hrs by MTT assay
In series [12] the test system is NCI-H1975. In words: Inhibition of NFkappaB phosphorylation in gefitinib-resistant human NCI-H1975 cells harboring EGFR L858R/[…] double mutant at 0.01 to 1 uM after 24 hrs by Western blot analysis. The class given is cell-based.
The nature of series [13]: Induction of NO production in human 16HBE14o- cells harboring wild type EGFR assessed as increase in nitrite level at 100 uM after 150 mins by Griess assay. The class given is cell-based. As to conditions: 2.5 h.
Series [14] relates to NCI-H1975. In words: Cytotoxicity against gefitinib-resistant human NCI-H1975 cells harboring EGFR L858R/[…] double mutant assessed as growth inhibition after 72 hrs by MTT assay. The class given is functional, cell-based. The note with it: NCI-H1975, 72 h. A general note: Formazan colour is commonly taken as a measure of viable cells.
The target in series [15] is Epidermal growth factor receptor (Homo sapiens, UniProt P00533, L858R/T790M). The class given is protein assay.
Sequence of Epidermal growth factor receptor (Homo sapiens, UniProt P00533, L858R/T790M) (P00533 25-1210 T790M/L858R limits assumed): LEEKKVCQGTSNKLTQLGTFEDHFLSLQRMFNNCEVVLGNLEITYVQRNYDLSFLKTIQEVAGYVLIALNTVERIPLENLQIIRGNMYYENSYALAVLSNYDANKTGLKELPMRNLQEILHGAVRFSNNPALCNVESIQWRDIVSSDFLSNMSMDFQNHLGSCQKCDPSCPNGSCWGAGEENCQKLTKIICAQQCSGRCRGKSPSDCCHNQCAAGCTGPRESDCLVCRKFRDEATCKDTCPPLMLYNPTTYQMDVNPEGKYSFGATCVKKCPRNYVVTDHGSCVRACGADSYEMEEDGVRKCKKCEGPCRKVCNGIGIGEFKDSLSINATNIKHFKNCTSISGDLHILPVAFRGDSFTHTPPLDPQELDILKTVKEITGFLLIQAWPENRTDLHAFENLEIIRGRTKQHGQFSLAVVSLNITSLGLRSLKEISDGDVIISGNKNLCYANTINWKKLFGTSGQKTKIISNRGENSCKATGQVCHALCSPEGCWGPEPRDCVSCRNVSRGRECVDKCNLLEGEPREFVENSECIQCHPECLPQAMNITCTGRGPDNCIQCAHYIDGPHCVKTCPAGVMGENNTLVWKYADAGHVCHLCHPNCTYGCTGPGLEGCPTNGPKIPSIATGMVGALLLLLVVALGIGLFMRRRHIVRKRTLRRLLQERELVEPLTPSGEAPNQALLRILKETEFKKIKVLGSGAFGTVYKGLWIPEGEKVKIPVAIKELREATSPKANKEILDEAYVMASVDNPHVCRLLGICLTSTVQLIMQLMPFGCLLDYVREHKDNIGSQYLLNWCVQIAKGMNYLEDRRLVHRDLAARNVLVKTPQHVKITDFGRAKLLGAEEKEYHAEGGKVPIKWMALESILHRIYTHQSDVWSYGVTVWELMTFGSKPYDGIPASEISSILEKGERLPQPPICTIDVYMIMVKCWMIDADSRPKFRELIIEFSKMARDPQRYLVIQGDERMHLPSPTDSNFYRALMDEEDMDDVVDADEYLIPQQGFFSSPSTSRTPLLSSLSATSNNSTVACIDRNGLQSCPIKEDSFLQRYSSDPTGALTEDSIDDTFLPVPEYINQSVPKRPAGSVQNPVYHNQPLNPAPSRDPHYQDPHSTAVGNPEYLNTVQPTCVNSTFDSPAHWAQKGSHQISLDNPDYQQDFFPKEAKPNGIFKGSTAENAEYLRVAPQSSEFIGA
Description: Inhibition of EGFR L858R/T790M double mutant (unknown origin) after 1.5 hrs by FRET-based Z'Lyte assay
Series [16] relates to A-431. In words: Ratio of compound IC50 to WZ4002 IC50 for human A431 cells overexpressing wild type EGFR. The class given is ADME, cell-based.
For series [17], the target named is Epidermal growth factor receptor (Homo sapiens, UniProt P00533, L858R). The class given is protein assay.
Sequence of Epidermal growth factor receptor (Homo sapiens, UniProt P00533, L858R) (P00533 25-1210 L858R limits assumed): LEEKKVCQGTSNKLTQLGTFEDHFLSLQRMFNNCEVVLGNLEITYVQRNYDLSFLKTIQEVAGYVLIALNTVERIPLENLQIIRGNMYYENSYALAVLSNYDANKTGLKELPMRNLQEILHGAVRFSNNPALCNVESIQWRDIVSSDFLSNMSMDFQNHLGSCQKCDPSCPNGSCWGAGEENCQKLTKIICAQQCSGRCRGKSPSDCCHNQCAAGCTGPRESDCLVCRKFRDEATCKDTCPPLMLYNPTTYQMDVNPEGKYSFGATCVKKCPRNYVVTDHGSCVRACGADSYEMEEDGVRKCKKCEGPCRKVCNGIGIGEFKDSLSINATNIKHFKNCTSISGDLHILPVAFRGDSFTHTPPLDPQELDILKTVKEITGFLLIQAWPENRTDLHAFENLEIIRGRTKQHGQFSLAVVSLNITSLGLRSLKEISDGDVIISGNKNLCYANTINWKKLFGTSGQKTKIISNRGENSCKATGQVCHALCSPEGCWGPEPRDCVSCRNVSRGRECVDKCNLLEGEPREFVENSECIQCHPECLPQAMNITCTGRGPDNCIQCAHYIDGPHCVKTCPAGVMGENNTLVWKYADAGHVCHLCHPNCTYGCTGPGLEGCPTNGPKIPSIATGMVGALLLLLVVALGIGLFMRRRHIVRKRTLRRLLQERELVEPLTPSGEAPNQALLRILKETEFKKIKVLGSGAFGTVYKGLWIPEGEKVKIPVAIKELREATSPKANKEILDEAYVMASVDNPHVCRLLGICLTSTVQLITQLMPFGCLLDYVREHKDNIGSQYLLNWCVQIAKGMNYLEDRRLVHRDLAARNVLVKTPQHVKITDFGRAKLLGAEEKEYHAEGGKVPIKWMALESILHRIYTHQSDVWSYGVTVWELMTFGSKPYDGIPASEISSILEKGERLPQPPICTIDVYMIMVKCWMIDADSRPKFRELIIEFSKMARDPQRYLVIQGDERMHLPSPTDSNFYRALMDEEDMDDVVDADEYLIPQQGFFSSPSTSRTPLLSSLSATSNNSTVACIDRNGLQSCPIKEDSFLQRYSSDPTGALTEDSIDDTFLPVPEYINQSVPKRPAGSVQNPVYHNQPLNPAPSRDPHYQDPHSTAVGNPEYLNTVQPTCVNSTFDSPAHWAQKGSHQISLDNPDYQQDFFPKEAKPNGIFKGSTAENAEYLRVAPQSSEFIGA
Description: Inhibition of EGFR L858R mutant (unknown origin) after 1.5 hrs by FRET-based Z'Lyte assay
For series [18], the system named is A-431. In words: cells. The note with it: Homo sapiens, A-431, 72 h. The class given is ADME, cell-based.
Description: Cytotoxicity against human A431 cells overexpressing wild type EGFR assessed as growth inhibition after 72 hrs by MTT assay
Series [19] has as its system NCI-H1975. In words: Antitumor activity against gefitinib-resistant human NCI-H1975 cells harboring EGFR L858R/[…] double mutant xenografted in athymic BALB/c nude mouse assessed as tumor growth inhibition at 14 mg/kg, ip qd administered for 14 days measured every other day during compound administration relative to vehicle-treated control. The class given is functional. As to conditions: 336 h, route intraperitoneal, read-out: TGI.

Series [20] can be described thus: Selectivity ratio of IC50 for human 16HBE14o- cells harboring wild type EGFR to IC50 for gefitinib-sensitive human HCC827 cells harboring EGFR […] deletion mutant. The class given is ADME, cell-based. As to conditions: read-out: Ratio IC50.
Series [21] has as its system Epidermal growth factor receptor (Homo sapiens), P00533 [L858R,T790M]. In words: Inhibition of EGFR L858R/[…] double mutant phosphorylation in gefitinib-resistant human NCI-H1975 cells assessed as inhibition of ERK phosphorylation after 24 hrs by Western blot analysis. The class given is cell-based.
Series [22] shares this test system. In words: Inhibition of EGFR L858R/[…] double mutant phosphorylation in gefitinib-resistant human NCI-H1975 cells assessed as inhibition of AKT phosphorylation after 24 hrs by Western blot analysis. The class given is cell-based.
The nature of series [23]: Selectivity ratio of IC50 for human A549 cells harboring wild type EGFR and k-RAS mutation to IC50 for gefitinib-sensitive human HCC827 cells harboring EGFR […] deletion mutant. The class given is ADME, cell-based.
Series [24] is described as follows: Selectivity ratio of IC50 for human A431 cells overexpressing wild type EGFR to IC50 for gefitinib-sensitive human HCC827 cells harboring EGFR […] deletion mutant. The class given is ADME, cell-based.
The nature of series [25]: cells. The class given is ADME, cell-based. As to conditions: Homo sapiens, 16HBE14o-, 72 h.
Description: Cytotoxicity against human 16HBE14o- cells harboring wild type EGFR assessed as growth inhibition after 72 hrs by MTT assay
The nature of series [26]: Selectivity ratio of IC50 for human 16HBE14o- cells harboring wild type EGFR to IC50 for gefitinib-resistant human NCI-H1975 cells harboring EGFR L858R/[…] double mutant. The class given is ADME, cell-based. As to conditions: read-out: Ratio IC50.
Series [27] can be described thus: Selectivity ratio of IC50 for human A431 cells overexpressing wild type EGFR to IC50 for gefitinib-resistant human NCI-H1975 cells harboring EGFR L858R/[…] double mutant. The class given is ADME, cell-based.
Series [28] relates to A549. In words: Ratio of compound IC50 to WZ4002 IC50 for human A549 cells harboring wild type EGFR and k-RAS mutation. The class given is ADME, cell-based.
The nature of series [29]: Selectivity ratio of IC50 for human BEAS2B cells harboring wild type EGFR to IC50 for gefitinib-resistant human NCI-H1975 cells harboring EGFR L858R/[…] double mutant. The class given is ADME, cell-based. The note with it: read-out: Ratio IC50.
Series [30] in a line: Selectivity ratio of IC50 for human BEAS2B cells harboring wild type EGFR to IC50 for gefitinib-sensitive human HCC827 cells harboring EGFR […] deletion mutant. The class given is ADME, cell-based. As to conditions: read-out: Ratio IC50.
The test system of a further series is Mus musculus. In words: Toxicity in athymic BALB/c nude mouse xenografted with gefitinib-resistant human NCI-H1975 cells harboring EGFR L858R/[…] double mutant assessed as body mass loss at 14 mg/kg, ip qd administered for 14 days measured every other day during compound administration relative to vehicle-treated control. The class given is organism-based. As to conditions: in vivo, 336 h. Set-up: dose 14 mg/kg, route intraperitoneal.

Series [31] relates to NCI-H1975. In words: Cytotoxicity against gefitinib-resistant human NCI-H1975 cells harboring EGFR L858R/[…] double mutant assessed as growth inhibition at 1 uM after 24 hrs by MTT assay in presence of hemoglobin. The class given is functional, cell-based.
Series [32] has as its target Epidermal growth factor receptor (Homo sapiens, UniProt P00533).
Description: Inhibition of wild type EGFR (unknown origin) after 1.5 hrs by FRET-based Z'Lyte assay
The subject of series [33] is Epidermal growth factor receptor (Homo sapiens), P00533 [L858R,T790M]. In words: Inhibition of EGFR L858R/[…] double mutant phosphorylation in gefitinib-resistant human NCI-H1975 cells after 24 hrs by Western blot analysis. The class given is cell-based.
Series [34] has as its system HCC827. In words: Cytotoxicity against gefitinib-sensitive human HCC827 cells harboring EGFR […] deletion mutant assessed as growth inhibition at 1 uM after 24 hrs by MTT assay in presence of hemoglobin. The class given is functional, cell-based.
A short description of series [35]: Ratio of compound IC50 to WZ4002 IC50 for human BEAS2B cells harboring wild type EGFR. The note with it: read-out: Ratio IC50. The class given is ADME, cell-based.
Series [36] in a line: Selectivity ratio of IC50 for human A549 cells harboring wild type EGFR and k-RAS mutation to IC50 for gefitinib-resistant human NCI-H1975 cells harboring EGFR L858R/[…] double mutant. The class given is ADME, cell-based.

Sequence of Epidermal growth factor receptor (Homo sapiens), P00533 [L858R,T790M] (P00533 whole entry T790M/L858R, looked up): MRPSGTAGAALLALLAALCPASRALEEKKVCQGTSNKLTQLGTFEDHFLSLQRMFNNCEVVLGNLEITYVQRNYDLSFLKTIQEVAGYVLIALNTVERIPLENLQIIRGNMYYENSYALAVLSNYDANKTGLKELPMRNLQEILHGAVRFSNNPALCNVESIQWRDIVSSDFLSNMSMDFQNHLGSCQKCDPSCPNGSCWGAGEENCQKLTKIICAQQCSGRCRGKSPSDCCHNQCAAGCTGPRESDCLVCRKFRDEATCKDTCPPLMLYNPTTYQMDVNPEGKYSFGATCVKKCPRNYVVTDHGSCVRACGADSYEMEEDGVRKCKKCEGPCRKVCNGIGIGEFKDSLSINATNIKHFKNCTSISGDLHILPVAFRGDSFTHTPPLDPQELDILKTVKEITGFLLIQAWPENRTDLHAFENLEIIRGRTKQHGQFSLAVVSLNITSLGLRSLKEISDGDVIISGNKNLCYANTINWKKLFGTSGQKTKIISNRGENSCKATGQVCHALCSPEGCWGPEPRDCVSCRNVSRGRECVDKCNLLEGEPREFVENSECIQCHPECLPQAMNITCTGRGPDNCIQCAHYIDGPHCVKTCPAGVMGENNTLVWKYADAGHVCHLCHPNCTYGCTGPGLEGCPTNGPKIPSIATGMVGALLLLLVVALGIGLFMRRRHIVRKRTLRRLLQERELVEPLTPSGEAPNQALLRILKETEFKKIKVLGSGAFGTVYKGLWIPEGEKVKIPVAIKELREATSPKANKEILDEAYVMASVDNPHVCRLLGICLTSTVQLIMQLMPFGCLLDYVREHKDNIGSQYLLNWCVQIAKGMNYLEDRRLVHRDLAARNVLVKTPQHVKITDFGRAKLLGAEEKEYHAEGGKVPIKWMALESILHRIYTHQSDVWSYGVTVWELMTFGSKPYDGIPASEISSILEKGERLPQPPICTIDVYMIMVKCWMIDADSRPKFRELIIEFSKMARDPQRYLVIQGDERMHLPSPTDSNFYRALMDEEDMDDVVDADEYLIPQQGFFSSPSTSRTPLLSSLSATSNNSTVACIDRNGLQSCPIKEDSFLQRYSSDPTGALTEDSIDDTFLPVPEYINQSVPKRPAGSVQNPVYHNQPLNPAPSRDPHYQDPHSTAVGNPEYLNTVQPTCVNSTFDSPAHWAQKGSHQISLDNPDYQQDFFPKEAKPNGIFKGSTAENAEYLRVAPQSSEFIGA
Sequence of Epidermal growth factor receptor (Homo sapiens, UniProt P00533) (P00533 whole entry): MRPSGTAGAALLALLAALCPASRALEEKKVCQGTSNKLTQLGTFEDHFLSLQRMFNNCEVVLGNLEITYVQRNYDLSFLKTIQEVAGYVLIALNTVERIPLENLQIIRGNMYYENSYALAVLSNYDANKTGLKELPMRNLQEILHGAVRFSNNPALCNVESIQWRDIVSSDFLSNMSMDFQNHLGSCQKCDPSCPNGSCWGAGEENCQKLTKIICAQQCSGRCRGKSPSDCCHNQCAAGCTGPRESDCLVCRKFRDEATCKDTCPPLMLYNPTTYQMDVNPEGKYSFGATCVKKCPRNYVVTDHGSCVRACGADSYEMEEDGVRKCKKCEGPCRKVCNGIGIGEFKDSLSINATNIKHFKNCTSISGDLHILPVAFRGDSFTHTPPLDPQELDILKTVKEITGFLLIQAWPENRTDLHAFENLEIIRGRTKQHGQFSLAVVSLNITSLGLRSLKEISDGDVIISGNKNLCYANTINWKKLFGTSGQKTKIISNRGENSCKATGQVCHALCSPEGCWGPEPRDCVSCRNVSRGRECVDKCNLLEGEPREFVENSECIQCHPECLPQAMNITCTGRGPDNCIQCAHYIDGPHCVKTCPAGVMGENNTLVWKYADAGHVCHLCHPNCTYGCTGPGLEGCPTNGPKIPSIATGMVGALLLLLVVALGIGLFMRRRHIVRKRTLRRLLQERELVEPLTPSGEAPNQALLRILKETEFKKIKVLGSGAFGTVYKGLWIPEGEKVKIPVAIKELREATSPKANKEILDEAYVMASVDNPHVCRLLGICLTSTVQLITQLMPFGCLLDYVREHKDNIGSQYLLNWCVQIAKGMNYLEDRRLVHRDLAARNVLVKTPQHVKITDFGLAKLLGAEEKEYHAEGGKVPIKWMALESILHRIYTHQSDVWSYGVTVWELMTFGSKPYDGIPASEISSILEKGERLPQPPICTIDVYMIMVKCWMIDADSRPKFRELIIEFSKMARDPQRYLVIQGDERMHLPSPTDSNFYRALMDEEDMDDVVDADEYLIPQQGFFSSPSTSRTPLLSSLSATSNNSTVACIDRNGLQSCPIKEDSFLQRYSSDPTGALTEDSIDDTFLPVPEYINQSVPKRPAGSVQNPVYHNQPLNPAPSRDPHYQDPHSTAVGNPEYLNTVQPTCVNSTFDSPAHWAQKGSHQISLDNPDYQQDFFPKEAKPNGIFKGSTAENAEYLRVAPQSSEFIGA

Consider `C=CC(=O)Nc1cccc(Oc2nc(Nc3ccc(N4CCN(C)CC4)cc3OC)ncc2Cl)c1`, for which the inhibition result in [1], in series [3] and in series [8] was “Active” each time. Moreover, the Activity result is “Dose-dependent effect” with NCI-H1975 [2], “Dose-dependent effect” in the series on HCC827 [4], “Non-toxic” in [5] and “Non-toxic” in series [13]. The result in the series on NCI-H1975 [6] was inactive. Moreover, the negative-log IC50 (pIC50) with A549 [7] is 5.68; in the series “cells [10]”, 8.10; in “cells [11]” it was 5.74; in the series with NCI-H1975 [14], 7.34. The inhibition in vivo at 8 mg/kg in the series on NCI-H1975 [9] amounted to 69%. Besides, in the series with NCI-H1975 [12], the inhibition result is “inactive”.

Take `C=CC(=O)Nc1cccc(Oc2nc(Nc3ccc(N4CCN(CC(=O)OCCCCCCOc5no[n+]([O-])c5S(=O)(=O)c5ccccc5)CC4)cc3OC)ncc2Cl)c1`: the negative logarithm of the IC50 (pIC50) is 7.33 in series [15]; 6.52 in series [17]; 5.25 with A-431 [18]; 4.62 in the series “cells [25]”; under 4.30 with A549 [7]; 6.53 in [32]. The values for the pIC50 in the series “cells [10]”, in the series “cells [11]” and in the series on NCI-H1975 [14] were 8.15, 4.35 and 7.54, respectively. Further, the “Ratio IC50” value in the series with A-431 [16] was 5; in [23] it was 60; in series [24] it was 60; in [27], 60; in the series with A549 [28], 5; in series [36], 60. Also, the inhibition in vivo at 14 mg/kg in the series with NCI-H1975 [19] turned out to be 60%. Also, the Activity entry is “Dose-dependent effect” with NCI-H1975 [2]; “Dose-dependent effect” in the series on HCC827 [4]; “Non-toxic” in series [5]; “Non-toxic” in the series on Mus musculus; “Non-toxic” in series [13]. The selectivity ratio in [20] was determined as 40; in [26] it was 40; in series [29], 40; in series [30], 40; in series [35] it was 5. For the same compound, the inhibition result in series [21], in series [22] and in series [33] was “Dose-dependent effect” throughout. In the series with NCI-H1975 [6], the outcome was Active. The “growth inhibition (GI)” value with NCI-H1975 [31] and in the series on HCC827 [34] was “inactive” in each case. Moreover, the inhibition entry in the series on NCI-H1975 [12] is “Active”.

The record behind these values is ChEMBL document CHEMBL2380214, “Novel hybrids of (phenylsulfonyl)furoxan and anilinopyrimidine as potent and selective epidermal growth factor receptor inhibitors for intervention of non-small-cell lung cancer” (J Med Chem, 2013).
